From PMC5522996, “Big conductance calcium‐activated potassium channel openers control spasticity without sedation” (British Journal of Pharmacology, 2017)
Like-named read-outs stand apart in the source and are kept apart here.

Assays:
[1] = target: T1, hCB2 Receptor (HEK293T.CNR2) (Homo sapiens, UniProt P34972); assay: cAMP assay, HEK293T.CNR2; assay type: cell-based; details: max. tested 10μM
T1 construct: expressed in transfected cells; host or cells: HEK293T

BZD = assay: Receptor binding profile of VSN16R; parameters: species or system human; details: 10µM VSN16R
ML1 = assay: Receptor binding profile of VSN16R; parameters: species or system human; details: 10µM VSN16R
[2] = Stability in pooled mouse liver microsomes; assay type: in vitro ADME; details: pooled mouse liver microsomes, 37°C, upper limit 100 min, read-out: t ½ in liver microsomes
Procedure: (§1) The stability of compounds when subjected to hepatic and plasma degradation was assessed in vitro by Inpharmatica, Cambridge, UK. Compounds (1 μM) were incubated with either pooled mouse liver microsomes (0.1 mg protein mL^−1) or pooled mouse plasma at 37°C for 0, 5, 10, 20 and 40 min before termination with acetonitrile containing warfarin as an analytical internal standard. Samples were centrifuged, and the resultant supernatant analysed for parent compound. The mass responses at baseline were taken as the 100% reference values against which the disappearance of the compound was measured. The natural log of the % remaining values was used to generate linear plots of disappearance of the compounds. Half‐life values were calculated from the slope of these plots. Hepatocyte metabolism was assessed by Cyprotex, Macclesfield, and 10 μM VSN16R was incubated with primary mouse, rat, monkey (Macaque) and human hepatocytes for 1 h, and the presence of metabolites was assessed using liquid […] mass spectroscopy. The stability of VSN16R was assessed in vivo by Inpharmatica, Cyprotex and Charles Rivers, Cambridge. Blood (plasma) samples were obtained prior to and 5 min to 24 h after drug administration of 2–5 mg·kg^−1 i.v. or 5 mg·kg^−1 p.o. VSN16R into outbred mice and rats (n = 3 per time point). […] Data are expressed as mean ± SEM. […]

rabbits = assay: Reproductive toxicology in rabbits; assay type: in vivo, rabbit
Procedure: (§2) Twenty‐eight day toxicology in rats and dogs for Investigational New Drug filing was performed by Charles Rivers (UK). Reproductive toxicology in rabbits was performed by Charles Rivers (Canada). Pharmacokinetic and/or toxicological doses ranged from 5 to 1000 mg·kg^−1 p.o. in Sprague Dawley male and female rats (n = 6‐26 per group), 50–200 mg·kg^−1 p.o. in male and female Beagle dogs (n = 6 per group) and 100–750 mg·kg^−1 p.o. in female New Zealand white rabbits (n = 9 per group). Results are expressed as mean ± SD.

EDG1 = target: T2, EDG1 (Homo sapiens, UniProt P21453); assay: Receptor binding profile of VSN16R; details: 10µM VSN16R
T2 construct: purchased Cerep; Chantest; DiscoveRx; Multispan; MDS Pharma Services

H2 = target: T3, H2 (Homo sapiens, UniProt P25021); assay: Receptor binding profile of VSN16R; details: 10µM VSN16R
T3 construct: purchased Cerep; Chantest; DiscoveRx; Multispan; MDS Pharma Services

TrK B = target: T4, TrK B (Homo sapiens, UniProt Q16620); assay: Receptor binding profile of VSN16R; details: 10µM VSN16R
T4 construct: purchased Cerep; Chantest; DiscoveRx; Multispan; MDS Pharma Services

M2 = target: T5, M2 (Homo sapiens, UniProt P08172); assay: Receptor binding profile of VSN16R; details: 10µM VSN16R
T5 construct: purchased Cerep; Chantest; DiscoveRx; Multispan; MDS Pharma Services

CCR1 = target: T6, CCR1 (Homo sapiens, UniProt P32246); assay: Receptor binding profile of VSN16R; details: 10µM VSN16R
T6 construct: purchased Cerep; Chantest; DiscoveRx; Multispan; MDS Pharma Services

monoglycerol lipase = target: T7, monoglycerol lipase (Homo sapiens, UniProt Q99685); assay: Receptor binding profile of VSN16R; details: 10µM VSN16R
T7 construct: purchased Cerep; Chantest; DiscoveRx; Multispan; MDS Pharma Services

healthy volunteers = assay: Phase I safety study, adverse events; assay type: in vivo, human
rats = assay: Irwin test; assay type: in vivo, rat
GPR55 = target: T8, GPR55 (Homo sapiens, UniProt Q9Y2T6); assay: Receptor binding profile of VSN16R
T8 construct: purchased Cerep; Chantest; DiscoveRx; Multispan; MDS Pharma Services

[3] = Plasma levels in toxicological studies, rats; assay type: in vivo; details: both sexes, Sprague Dawley, rat, po; for concentration at 30 min: 30 min following 50 mg·kg^−1 p.o.
Procedure: as §2
as §1, with “point). In addition, plasma, brain and spinal cord samples were obtained from ABH with spastic EAE. Immediately after blood collection, the brain and spinal cord were removed and then stored at −20°C prior to assay.” for “point).”

VIP1 = target: T9, VIP1 (Homo sapiens, UniProt P32241); assay: Receptor binding profile of VSN16R; details: 10µM VSN16R
T9 construct: purchased Cerep; Chantest; DiscoveRx; Multispan; MDS Pharma Services

Water solubility = assay type: physicochemical
GPR35 = target: T10, GPR35 (Homo sapiens, UniProt Q9HC97); assay: Receptor binding profile of VSN16R; details: 10µM VSN16R
T10 construct: purchased Cerep; Chantest; DiscoveRx; Multispan; MDS Pharma Services

[4] = Plasma, brain and spinal cord levels in ABH mice with spastic EAE; assay type: in vivo, mouse
Procedure: The stability of compounds when subjected to hepatic and plasma degradation was assessed in vitro by Inpharmatica, Cambridge, UK. Compounds (1 μM) were incubated with either pooled mouse liver microsomes (0.1 mg protein mL^−1) or pooled mouse plasma at 37°C for 0, 5, 10, 20 and 40 min before termination with acetonitrile containing warfarin as an analytical internal standard. Samples were centrifuged, and the resultant supernatant analysed for parent compound. The mass responses at baseline were taken as the 100% reference values against which the disappearance of the compound was measured. The natural log of the % remaining values was used to generate linear plots of disappearance of the compounds. Half‐life values were calculated from the slope of these plots. Hepatocyte metabolism was assessed by Cyprotex, Macclesfield, and 10 μM VSN16R was incubated with primary mouse, rat, monkey (Macaque) and human hepatocytes for 1 h, and the presence of metabolites was assessed using liquid […] mass spectroscopy. The stability of VSN16R was assessed in vivo by Inpharmatica, Cyprotex and Charles Rivers, Cambridge. Blood (plasma) samples were obtained prior to and 5 min to 24 h after drug administration of 2–5 mg·kg^−1 i.v. or 5 mg·kg^−1 p.o. VSN16R into outbred mice and rats (n = 3 per time point). In addition, plasma, brain and spinal cord samples were obtained from ABH with spastic EAE. Immediately after blood collection, the brain and spinal cord were removed and then stored at −20°C prior to assay. Tissue samples were weighed, homogenized and centrifuged, and the lysates generated. Brain lysates and plasma were assayed by LC–MS methods by Inpharmatica/Charles Rivers, Cambridge, UK. This was also performed using a Waters Xevo TQ or API4000, AB Sciex mass spectrometer using spiked samples as standards. PK Solutions Software (Summit Research Services, Montrose, CO, USA), AB Sciex Analyst software combined with Thermo Fisher Scientific Watson LIMS processing and reporting software or WinNonLin pharmacokinetic or PK solutions 2.0 software (Summit Research Services, Montrose CO, USA) were used to produce PK parameters. Data are expressed as mean ± SEM. The detection limit of VSN16R was 2 ng·mL^−1 in plasma and brain and 14 ng·mL^−1 in spinal cords. The detection limit of VSN22R was 2 ng·mL^−1 in plasma and 0.1 ng·mL^−1 for VSN44R in plasma. Pharmacokinetics in toxicological samples in rats (n = 6 per group), dogs (n = 6 per group) and humans (n = 6 per group) were performed by Charles Rivers (Edinburgh, UK).

H1 = target: T11, H1 (Homo sapiens, UniProt P35367); assay: Receptor binding profile of VSN16R; details: 10µM VSN16R
T11 construct: purchased Cerep; Chantest; DiscoveRx; Multispan; MDS Pharma Services

Na+-Ca2+ exchanger = assay: Receptor binding profile of VSN16R; parameters: species or system human; details: 10µM VSN16R
[5] = target: T12, hCB2 Receptor (CHO-K1.CNR2) (Homo sapiens, UniProt P34972); assay: GTPγS Binding assay, CHO-K1.CNR2; assay type: biochemical; details: max. tested 10μM
T12 construct: expressed in transfected cells; host or cells: CHO-K1
T12 sequence (P34972 whole entry): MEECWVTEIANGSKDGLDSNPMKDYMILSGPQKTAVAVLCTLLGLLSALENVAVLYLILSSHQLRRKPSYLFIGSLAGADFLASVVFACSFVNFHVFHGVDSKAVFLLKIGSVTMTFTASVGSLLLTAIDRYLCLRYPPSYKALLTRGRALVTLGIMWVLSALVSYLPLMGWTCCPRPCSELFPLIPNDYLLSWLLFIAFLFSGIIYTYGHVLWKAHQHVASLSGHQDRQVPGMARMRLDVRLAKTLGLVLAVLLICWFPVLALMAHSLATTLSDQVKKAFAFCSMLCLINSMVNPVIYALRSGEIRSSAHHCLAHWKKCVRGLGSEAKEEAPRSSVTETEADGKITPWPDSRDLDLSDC

T8 sequence (Q9Y2T6 whole entry): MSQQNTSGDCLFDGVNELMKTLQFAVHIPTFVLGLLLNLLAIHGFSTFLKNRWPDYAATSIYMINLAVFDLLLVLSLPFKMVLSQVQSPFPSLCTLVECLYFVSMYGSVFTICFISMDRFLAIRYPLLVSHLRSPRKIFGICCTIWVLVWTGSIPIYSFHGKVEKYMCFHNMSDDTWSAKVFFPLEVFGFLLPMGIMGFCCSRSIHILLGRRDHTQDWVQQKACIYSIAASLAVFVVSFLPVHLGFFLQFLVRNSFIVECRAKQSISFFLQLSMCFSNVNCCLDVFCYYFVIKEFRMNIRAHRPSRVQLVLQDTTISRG
T6 sequence (P32246 whole entry): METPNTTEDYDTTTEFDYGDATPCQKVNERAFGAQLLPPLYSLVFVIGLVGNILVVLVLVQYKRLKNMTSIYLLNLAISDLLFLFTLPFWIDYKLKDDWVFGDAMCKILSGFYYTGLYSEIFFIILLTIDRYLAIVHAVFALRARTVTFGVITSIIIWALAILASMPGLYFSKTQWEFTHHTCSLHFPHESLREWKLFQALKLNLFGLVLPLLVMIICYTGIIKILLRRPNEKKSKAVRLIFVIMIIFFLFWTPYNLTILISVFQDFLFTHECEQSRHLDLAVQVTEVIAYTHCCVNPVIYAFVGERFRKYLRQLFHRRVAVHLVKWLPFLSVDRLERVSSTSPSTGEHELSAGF
T1 sequence (P34972 whole entry): as the sequence (P34972 whole entry) above
T9 sequence (P32241 31-457): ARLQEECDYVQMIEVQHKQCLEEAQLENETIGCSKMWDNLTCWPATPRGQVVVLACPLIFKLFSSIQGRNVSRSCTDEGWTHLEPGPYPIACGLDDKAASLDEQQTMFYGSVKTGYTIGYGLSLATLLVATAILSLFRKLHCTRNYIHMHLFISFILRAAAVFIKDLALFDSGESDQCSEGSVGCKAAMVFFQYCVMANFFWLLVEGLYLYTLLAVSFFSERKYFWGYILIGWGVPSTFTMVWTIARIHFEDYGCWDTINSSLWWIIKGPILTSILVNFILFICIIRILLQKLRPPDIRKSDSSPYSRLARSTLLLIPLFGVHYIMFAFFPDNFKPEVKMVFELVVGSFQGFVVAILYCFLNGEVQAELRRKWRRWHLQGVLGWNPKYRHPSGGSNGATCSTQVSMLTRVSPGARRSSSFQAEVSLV
T7 sequence (Q99685 whole entry): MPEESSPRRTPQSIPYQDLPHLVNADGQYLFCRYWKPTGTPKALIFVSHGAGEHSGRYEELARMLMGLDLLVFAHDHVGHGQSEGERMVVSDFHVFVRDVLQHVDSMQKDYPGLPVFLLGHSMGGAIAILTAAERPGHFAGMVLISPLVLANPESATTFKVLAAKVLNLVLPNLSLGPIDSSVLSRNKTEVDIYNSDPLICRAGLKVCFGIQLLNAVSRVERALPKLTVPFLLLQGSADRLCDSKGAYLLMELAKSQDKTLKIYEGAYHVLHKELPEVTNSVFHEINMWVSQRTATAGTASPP
T2 sequence (P21453 whole entry): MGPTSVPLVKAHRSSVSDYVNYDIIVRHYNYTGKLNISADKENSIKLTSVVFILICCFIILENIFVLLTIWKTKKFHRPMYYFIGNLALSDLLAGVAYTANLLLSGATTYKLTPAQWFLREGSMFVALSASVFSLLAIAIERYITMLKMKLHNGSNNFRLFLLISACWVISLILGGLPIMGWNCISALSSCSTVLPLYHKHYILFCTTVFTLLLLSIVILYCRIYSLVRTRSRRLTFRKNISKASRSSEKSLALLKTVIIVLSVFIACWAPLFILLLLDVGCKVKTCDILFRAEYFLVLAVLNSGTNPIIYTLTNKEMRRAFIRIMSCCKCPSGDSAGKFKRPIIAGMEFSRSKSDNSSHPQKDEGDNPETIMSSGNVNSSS
T11 sequence (P35367 whole entry): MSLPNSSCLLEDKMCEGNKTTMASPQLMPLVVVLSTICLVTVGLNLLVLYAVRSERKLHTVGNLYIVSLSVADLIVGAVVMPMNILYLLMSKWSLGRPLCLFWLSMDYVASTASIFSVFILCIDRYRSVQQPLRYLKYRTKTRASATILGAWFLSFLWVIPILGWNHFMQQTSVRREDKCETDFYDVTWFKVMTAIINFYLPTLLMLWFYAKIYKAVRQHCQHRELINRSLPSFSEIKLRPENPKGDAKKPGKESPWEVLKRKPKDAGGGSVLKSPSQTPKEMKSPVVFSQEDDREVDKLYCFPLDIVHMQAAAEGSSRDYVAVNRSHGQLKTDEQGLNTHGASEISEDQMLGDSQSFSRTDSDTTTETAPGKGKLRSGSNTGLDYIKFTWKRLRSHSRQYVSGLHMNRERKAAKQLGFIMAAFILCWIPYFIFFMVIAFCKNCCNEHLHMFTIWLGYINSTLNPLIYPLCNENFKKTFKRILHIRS
T10 sequence (Q9HC97 whole entry): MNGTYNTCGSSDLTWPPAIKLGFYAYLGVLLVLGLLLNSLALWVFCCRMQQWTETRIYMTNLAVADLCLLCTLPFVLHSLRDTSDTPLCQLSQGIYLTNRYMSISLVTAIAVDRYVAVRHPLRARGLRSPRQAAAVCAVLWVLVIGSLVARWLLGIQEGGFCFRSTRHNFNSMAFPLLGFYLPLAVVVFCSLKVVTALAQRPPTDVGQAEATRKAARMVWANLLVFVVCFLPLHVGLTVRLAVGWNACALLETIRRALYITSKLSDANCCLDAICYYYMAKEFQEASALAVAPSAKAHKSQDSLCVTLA
T5 sequence (P08172 whole entry): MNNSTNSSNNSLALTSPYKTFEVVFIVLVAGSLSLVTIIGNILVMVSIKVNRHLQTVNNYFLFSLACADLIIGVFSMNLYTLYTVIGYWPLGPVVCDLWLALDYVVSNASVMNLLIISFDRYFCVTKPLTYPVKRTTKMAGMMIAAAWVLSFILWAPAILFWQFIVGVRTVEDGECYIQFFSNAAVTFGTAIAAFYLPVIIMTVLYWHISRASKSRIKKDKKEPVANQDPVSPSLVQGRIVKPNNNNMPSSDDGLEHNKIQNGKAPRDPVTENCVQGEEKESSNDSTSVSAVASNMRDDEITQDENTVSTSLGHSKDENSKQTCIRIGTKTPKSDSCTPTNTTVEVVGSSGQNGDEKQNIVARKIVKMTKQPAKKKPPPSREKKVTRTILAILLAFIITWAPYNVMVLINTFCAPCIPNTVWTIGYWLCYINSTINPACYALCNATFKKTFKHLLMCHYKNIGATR
T4 sequence (Q16620 32-822): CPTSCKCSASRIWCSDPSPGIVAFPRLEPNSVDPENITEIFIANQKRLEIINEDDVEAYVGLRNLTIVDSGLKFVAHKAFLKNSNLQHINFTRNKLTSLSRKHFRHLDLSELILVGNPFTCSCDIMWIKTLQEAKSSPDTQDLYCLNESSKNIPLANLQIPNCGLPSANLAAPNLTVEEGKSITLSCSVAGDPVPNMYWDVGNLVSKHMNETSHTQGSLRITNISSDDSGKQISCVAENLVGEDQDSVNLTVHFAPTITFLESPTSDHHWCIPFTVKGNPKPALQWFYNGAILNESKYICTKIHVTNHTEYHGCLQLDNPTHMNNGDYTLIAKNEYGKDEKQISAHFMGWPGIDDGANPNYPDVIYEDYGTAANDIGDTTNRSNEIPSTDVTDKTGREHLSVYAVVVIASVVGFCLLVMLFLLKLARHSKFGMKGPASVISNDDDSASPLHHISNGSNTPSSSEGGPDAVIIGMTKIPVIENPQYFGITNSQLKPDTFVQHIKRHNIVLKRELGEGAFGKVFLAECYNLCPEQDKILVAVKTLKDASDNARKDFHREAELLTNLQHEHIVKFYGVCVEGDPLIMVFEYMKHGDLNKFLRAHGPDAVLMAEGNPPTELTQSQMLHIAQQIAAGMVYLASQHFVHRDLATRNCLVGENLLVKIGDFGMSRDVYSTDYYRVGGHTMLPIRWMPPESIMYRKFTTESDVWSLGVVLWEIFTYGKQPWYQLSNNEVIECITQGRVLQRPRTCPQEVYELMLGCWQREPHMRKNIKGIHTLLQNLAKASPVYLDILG
T3 sequence (P25021 whole entry): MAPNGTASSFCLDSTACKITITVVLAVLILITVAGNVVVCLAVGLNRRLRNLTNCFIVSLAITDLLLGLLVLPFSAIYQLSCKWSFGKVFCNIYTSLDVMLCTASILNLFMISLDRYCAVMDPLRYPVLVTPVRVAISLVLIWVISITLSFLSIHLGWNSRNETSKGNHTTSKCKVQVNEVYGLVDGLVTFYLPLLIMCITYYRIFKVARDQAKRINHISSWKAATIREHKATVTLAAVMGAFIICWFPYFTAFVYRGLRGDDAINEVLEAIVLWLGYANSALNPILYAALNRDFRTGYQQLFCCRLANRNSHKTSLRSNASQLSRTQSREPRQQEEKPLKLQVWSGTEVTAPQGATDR

For `C[C@H](CO)NC(=O)c1cccc(/C=C\CCCC(=O)N(C)C)c1` [VSN16R], the “Activity of VSN16R (Max. Tested)” value [1] was “No Activity”, the Activity (BZD) was “Negligible Activity” and the Activity (ML1) was “Negligible Activity”. For the same molecule, the half-life at 1 μM [2] was over 1.67 h, the “Reproductive toxicology safe level” value (rabbits) was over 500 mg·kg^−1 and the Activity (EDG1) was “Negligible Activity”. For the same molecule, the Activity (H2) was “Negligible Activity”, the Activity (TrK B) was “Negligible Activity” and the Activity (M2) was “Negligible Activity”. For the same molecule, the Activity (CCR1) was “Negligible Activity”, the Activity (monoglycerol lipase) was “Negligible Activity” and the “Vomiting or issues of taste” value (healthy volunteers; encapsulated drug, human studies) was “no vomiting or issues of taste were reported”. The Sedation in humans (healthy volunteers; in vivo) was “does not induce sedation”, the Serious adverse events (healthy volunteers; multiple ascending dose b.i.d.) was “no serious adverse events” and the “Subjects with a possible side effect of the treatment” value (healthy volunteers; multiple ascending dose b.i.d., 3/18 subjects) was 16.7%. For the same molecule, the “Subjects reporting adverse events” value (healthy volunteers; multiple ascending dose b.i.d., 6/18 subjects) was 33.3%, the “Serious adverse drug‐related events” value (healthy volunteers; single ascending dose) was “No serious adverse drug‐related events occurred” and the Adverse events reported (healthy volunteers; single ascending dose 25–800 mg) was 14.3%. For the same molecule, the “Subjects with a possible associated effect with treatment” value (healthy volunteers; single ascending dose, 5/42 subjects) was 11.9%, the “Irwin test: Autonomic profile” value (rats; 120mg/kg p.o. in water) was “Unchanged” and the “Irwin test: Behavioural Profile” value (rats; 120mg/kg p.o. in water) was “Unchanged”. The “Irwin test: Neurological profile” value (rats; 120mg/kg p.o. in water) was “Unchanged”, the “Adverse behavioural responses in Irwin tests” value (rats; 120 mg·kg^−1 p.o.) was “did not display any adverse behavioural responses” and the Activity (GPR55; 10µM VSN16R) was “Negligible Activity”. For the same molecule, the “Binding to GPR55” value (GPR55; Multispan C1113, H113, HEK293T.GPR55 and mouse DBT.Gpr55 cell lines) was “does not directly bind”, the Cmax ([3]; 1000 mg·kg^−1 p.o., read-out: Plasma level at Cmax) was at most 368 µM and the concentration at 30 min ([3]; read-out: VSN16R detected in plasma) was 15 µM. The concentration at 30 min ([3]; read-out: VSN16R detected in plasma (Mean ± SD)) was 4907 ± 32.3 ng/mL, the Activity (VIP1) was “Negligible Activity” and the solubility (Water solubility) was over 30 mg/mL. The Activity (GPR35) was “Negligible Activity”, the “Plasma level of the named species” value ([4]; after 5 mg·kg^−1 p.o. VSN16R, ABH mice with spastic EAE) was 73.0 ± 6.1 ng/mL and the “Mice with drug detected in brains” value ([4]; chronic EAE animals) was 4/4. For the same molecule, the “Mice with drug detected in spinal cords” value ([4]; chronic EAE animals) was 2/4, the “Mice with drug detected in brains” value ([4]; normal animals) was 4/4 and the “Mice with drug detected in spinal cords” value ([4]; normal animals) was 0/4. The Activity (H1) was “Negligible Activity”, the Activity (Na+-Ca2+ exchanger) was “Negligible Activity” and the “Activity of VSN16R (Max. Tested)” value [5] was “No Activity”.
